Calls of active or inactive are those of the source.

A word on the IC50: it is the concentration needed to halve the response being measured. Usually EC50 stands for the concentration at which the effect is half-maximal.

One assay deals with Mu-type opioid receptor (Homo sapiens, UniProt P35372). In words: SAR Analysis of Antagonists of the MOR Receptor using an Image-Based Assay - Set 3. [Related pubchem assays (depositor defined):AID1777, AID1785, AID1786, AID1966, AID2133, AID2136, AID2284, AID2285, AID2420]. In kind it is functional.
Sequence of Mu-type opioid receptor (P35372 whole entry): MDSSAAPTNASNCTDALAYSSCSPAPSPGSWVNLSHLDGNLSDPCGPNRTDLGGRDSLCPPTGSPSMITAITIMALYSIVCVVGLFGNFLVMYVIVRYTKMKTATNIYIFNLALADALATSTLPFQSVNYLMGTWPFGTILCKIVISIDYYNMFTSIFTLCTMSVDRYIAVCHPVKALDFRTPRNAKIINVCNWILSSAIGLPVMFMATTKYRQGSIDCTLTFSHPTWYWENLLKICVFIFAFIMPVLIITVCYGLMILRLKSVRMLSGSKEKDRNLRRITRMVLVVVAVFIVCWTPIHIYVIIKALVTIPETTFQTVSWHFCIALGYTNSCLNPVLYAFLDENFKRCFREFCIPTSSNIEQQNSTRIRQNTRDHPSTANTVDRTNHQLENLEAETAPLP
Assay [1] concerns the target T1, Kappa-type opioid receptor (Homo sapiens, UniProt P41145). Description: SAR analysis of small molecule antagonists of the kappa opioid receptor via a luminescent beta-arrestin assay - Set 3. [Related pubchem assays (depositor defined):AID1777, AID1778, AID1785, AID1786, AID1966, AID2133, AID2136, AID2285, AID2495]. The assay is classed as functional.
Assay [2] addresses Delta-type opioid receptor (Homo sapiens, UniProt P41143). Description: SAR Analysis of Antagonists of the DOR Receptor using an Image-Based Assay - Set 3. [Related pubchem assays (depositor defined):AID1777, AID1785]. The assay is classed as functional.
For assay [3], the target named is T1, Kappa-type opioid receptor. Description: SAR analysis of Antagonists of the Kappa Opioid Receptor (KOR) using an Image-Based Assay - Set 4. [Related pubchem assays (depositor defined):AID1777, AID1785]. In kind it is functional.
Assay [4] addresses T2, Tyrosine-protein phosphatase non-receptor type 7 (Homo sapiens, UniProt P35236).
T2 sequence (P35236 whole entry): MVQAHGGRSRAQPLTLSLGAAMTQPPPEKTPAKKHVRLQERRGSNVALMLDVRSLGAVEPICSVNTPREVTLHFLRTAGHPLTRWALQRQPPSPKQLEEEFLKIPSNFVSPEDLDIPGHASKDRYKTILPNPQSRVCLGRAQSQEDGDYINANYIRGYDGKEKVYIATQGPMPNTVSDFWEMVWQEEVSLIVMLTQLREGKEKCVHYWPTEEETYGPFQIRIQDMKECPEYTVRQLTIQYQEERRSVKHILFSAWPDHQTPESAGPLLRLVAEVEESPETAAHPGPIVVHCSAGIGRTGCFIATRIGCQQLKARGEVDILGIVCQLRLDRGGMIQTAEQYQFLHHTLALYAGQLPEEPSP
In words: redox-active compounds inhibiting HePTP phosphatase – biochemical, fluorescence, mechanism study (AID 2068). In kind it is functional.

In another assay the test system is T-cell. Description: loss of vesicle association with mouse CD8+ T cells – mouse 2C CD8+ T cells, flow cytometry, dose response (AID 485284). The assay is classed as functional.
The test system of another assay is CHO. Description: CHO cell viability loss, potency – luminescence, cytotoxicity control for TLR9-MyD88 binding inhibitor project, dose response (AID 588339).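 Further: CHO cells stably coexpressing TLR9 and MyD88 fusions from primary screen; compound exposure lasted 48 hours before viability readout.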 In kind it is functional, cell-based, hamster. The note with it: Cricetulus griseus.
The target in a further assay is Beta Lactamase (Pseudomonas aeruginosa, UniProt Q932Y6). In words: BLA reporter interference, concentration series – BLA reporter cells, FRET fluorescence, artefact control for TLR9-MyD88 binding inhibitor project, dose response (AID 588341).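 Further: cell based assay in CHO-K1 cells stably expressing beta-lactamase.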 In kind it is cell-based.
Sequence of Beta Lactamase (Q932Y6 whole entry): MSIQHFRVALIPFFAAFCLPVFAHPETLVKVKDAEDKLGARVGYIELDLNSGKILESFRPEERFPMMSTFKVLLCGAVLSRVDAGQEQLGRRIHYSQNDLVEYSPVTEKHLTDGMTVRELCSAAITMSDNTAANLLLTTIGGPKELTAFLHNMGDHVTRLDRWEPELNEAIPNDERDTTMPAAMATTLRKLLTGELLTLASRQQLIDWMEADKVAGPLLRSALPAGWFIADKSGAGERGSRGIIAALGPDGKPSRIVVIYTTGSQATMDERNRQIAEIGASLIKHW
Assay [5] concerns the target Glucose-6-phosphate 1-dehydrogenase (Homo sapiens, UniProt P11413). In words: inhibition of Homo sapiens G6PD, dose series – biochemical, fluorescence, selectivity assay for P. falciparum G6PD inhibitor project, dose response (AID 504792). The assay is classed as functional.
A further assay has as its target Hexokinase (Trypanosoma brucei, UniProt Q38C41). In words: Confirmation assay for inhibitors of Trypanosoma brucei hexokinase 1-Analogue-first series. [Related pubchem assays (depositor defined):AID1430, AID1632, AID2516, AID2560, AID2579, AID2600, AID449725, AID492951]. In kind it is functional.
The next assay has as its target T3, Coagulation factor XII (Homo sapiens, UniProt P00748).
T3 sequence (P00748 whole entry): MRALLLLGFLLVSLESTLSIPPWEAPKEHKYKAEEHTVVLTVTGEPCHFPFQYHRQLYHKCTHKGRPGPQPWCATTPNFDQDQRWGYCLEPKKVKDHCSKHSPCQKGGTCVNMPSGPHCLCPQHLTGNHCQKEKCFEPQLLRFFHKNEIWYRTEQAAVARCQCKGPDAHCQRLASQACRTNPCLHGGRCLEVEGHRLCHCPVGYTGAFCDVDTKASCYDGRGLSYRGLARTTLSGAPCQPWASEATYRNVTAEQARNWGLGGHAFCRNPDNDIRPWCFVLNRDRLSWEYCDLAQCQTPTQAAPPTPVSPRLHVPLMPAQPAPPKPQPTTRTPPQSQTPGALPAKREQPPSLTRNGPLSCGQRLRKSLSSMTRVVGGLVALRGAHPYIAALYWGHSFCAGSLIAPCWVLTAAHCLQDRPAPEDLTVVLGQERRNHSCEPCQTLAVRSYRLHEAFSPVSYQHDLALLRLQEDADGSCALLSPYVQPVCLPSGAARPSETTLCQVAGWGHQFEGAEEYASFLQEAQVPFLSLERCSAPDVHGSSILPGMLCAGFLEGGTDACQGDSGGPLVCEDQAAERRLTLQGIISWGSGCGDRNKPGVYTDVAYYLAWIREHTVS
In words: Factor XIIa Dose Response Confirmation from Single Well HTS. [Related pubchem assays (depositor defined):AID701]. In kind it is functional.

T1 sequence (P41145 whole entry): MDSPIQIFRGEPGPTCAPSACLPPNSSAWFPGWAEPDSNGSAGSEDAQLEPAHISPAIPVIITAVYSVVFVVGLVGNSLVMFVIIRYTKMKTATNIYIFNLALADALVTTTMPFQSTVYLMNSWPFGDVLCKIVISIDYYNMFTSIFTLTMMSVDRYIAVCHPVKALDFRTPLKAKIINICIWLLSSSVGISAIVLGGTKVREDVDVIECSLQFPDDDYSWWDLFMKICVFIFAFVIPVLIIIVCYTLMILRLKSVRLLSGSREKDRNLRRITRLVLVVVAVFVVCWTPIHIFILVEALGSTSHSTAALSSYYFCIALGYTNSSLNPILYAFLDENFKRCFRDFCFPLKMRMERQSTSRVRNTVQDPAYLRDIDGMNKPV
Sequence of Hexokinase (Q38C41 whole entry): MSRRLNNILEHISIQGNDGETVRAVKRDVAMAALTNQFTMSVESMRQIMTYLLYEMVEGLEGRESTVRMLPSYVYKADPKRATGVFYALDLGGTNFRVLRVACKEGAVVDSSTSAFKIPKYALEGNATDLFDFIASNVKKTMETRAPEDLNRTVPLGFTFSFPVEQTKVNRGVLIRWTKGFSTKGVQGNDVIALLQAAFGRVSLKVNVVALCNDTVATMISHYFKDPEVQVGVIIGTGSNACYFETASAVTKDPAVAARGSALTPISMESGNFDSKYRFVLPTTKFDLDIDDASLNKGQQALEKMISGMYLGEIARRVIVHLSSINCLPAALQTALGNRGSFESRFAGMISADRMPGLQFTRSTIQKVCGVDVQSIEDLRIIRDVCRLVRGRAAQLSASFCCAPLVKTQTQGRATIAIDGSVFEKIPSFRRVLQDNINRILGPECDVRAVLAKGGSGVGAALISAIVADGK
Sequence of Delta-type opioid receptor (P41143 whole entry): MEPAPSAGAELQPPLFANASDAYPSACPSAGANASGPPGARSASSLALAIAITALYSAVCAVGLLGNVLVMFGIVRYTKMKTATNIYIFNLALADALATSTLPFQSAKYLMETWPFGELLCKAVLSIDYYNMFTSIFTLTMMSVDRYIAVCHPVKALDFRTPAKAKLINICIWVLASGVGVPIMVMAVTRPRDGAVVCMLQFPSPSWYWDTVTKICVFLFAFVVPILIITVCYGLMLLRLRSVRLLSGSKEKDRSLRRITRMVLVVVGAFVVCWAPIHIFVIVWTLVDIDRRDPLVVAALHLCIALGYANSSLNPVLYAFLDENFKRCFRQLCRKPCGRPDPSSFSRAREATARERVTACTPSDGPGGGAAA
Sequence of Glucose-6-phosphate 1-dehydrogenase (P11413 whole entry): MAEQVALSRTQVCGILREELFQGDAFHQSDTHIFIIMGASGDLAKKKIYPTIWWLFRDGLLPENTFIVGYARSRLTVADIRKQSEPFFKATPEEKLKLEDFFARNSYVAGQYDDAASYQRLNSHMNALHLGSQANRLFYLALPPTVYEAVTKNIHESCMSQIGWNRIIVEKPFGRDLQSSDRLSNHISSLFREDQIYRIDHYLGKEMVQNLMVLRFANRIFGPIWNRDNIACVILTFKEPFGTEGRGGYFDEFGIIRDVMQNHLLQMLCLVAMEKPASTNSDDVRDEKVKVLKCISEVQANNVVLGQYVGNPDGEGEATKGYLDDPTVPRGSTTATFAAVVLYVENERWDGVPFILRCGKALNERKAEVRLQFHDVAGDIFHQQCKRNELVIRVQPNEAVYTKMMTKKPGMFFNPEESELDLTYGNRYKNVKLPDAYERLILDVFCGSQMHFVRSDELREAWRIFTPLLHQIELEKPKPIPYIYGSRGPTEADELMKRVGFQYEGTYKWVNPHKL

Take `Cc1ccc(N2CCN(CCCNC(=O)Cn3c(=O)c4cccn4c4c(C)ccnc43)CC2)cc1`: the IC50 on Mu-type opioid receptor was > 32 µM (inactive); in assay [1], 0.875 µM (active); in assay [2] it was > 32 µM (inactive); in assay [3] it was 2.28 µM (active).
Turning to `CC1CCN(C(=O)Nc2ccc3nc(-c4ccco4)c(-c4ccco4)nc3c2)CC1`, the IC50 in [4] is 0.84 µM (active).
With `CC(=O)c1ccc(-c2csc(N3CCC(C(N)=O)CC3)n2)cc1`, the EC50 in the assay on T-cell is 2.47 µM (active).
Turning to `O=c1c2cc(C(F)(F)F)ccc2sn1-c1ccccc1`, the IC50 in the assay with CHO was 9.07 µM (active); at Beta Lactamase, > 49.8 µM (inactive); in assay [5] it was 18.3 µM (active); at Hexokinase it was > 25 µM (inactive).
As for `O=C(C1CCC1)N(CCc1ccccc1)Cc1nc(O)c2ccccc2n1`, the IC50 on Coagulation factor XII was > 50 µM (inactive).
